In brackets after ≈: the same amount, converted by molar mass. Where two headings read alike, the source gives them in different places.
Key:
[1] = Thermodynamic (Equilibrium) solubility in selected buffer; format: physicochemical; details: Table 25; for solubility: aqueous buffer, thermodynamic from solid
Method: Protocol—Thermodynamic (Equilibrium) Solubility in Selected Buffer
Example compounds were tested in the Thermodynamic (Equilibrium) solubility in selected buffer assay. The test compound, in powder form, was weighted into a 4 mL glass vial and a calculated volume of selected medium was added to reach the target concentration of the solubility test (1 mg/mL). The solution was then stirred overnight at r.t. protected from the light. The solution was filtered through a 0.45 μm PTFE membrane at ambient temperature. An aliquot of the resulting filtrate was quantified using UPLC-UV method described below against a reference solution of the test compound, 0.8 mg/mL in DMSO. Media compositions: Phosphate buffer 50 mM (pH=2.0) […] of NaH2PO4, H2O in 200 mL of ultrapurified water adjusted at pH 2 with phosphoric acid 85%; Acetate buffer 50 mM (pH=5.5) 820 mg of anhydrous sodium acetate in 200 mL of ultrapurified water adjusted at pH 5.5 with acetic acid 99.8%; Phosphate buffer 50 mM (pH=7.4) 40.5 mL of Na2HPO4 0.1 M solution+9.5 mL of NaH2PO4 0.1 M solution. Analytical conditions: UPLC-UV-MS analyses were performed with a Waters Acquity UPLC HClass-PDA-QDa system using a reverse phase Acquity BEH C18 column (2.1 mm×50 mm, 1.7 μm; temperature: 40° C.) and a gradient of 10-95% B (A=0.1% formic acid in H2O; B=0.05% formic acid in ACN) over 1.8 min then 100% B for 0.8 min, with an injection volume of 0.4 μL at flow rate of 0.65 mL/min. UV chromatograms were recorded at 220 nm, 254 nm and 290 nm using a photo diode array detector. Mass spectra were recorded in the 150 to 900 M/Z range at a sampling rate of 10 scans per sec using a QDa detector. Data were integrated using Empower®3 software. Data Analysis: Equilibrium solubility of the test compound in the selected medium was calculated through the ratio of the surface area of the UV chromatographic peak of the compound in the filtrate to the surface of the UV chromatographic peak of the compound in the reference solution.

[2] = system: ATF4; test: HEK-ATF4 High Content Imaging assay (prevention of Tunicamycin induced ISR; ATF4 signal ratio between nucleus and cytoplasm); format: cell-based; details: Homo sapiens; Wild-type HEK293 cells, Tunicamycin induced ISR, 6 h; read-out: IIEK-ATF4 Activity
Method: HEK-ATF4 High Content Imaging Assay
Example compounds were tested in the HEK-ATF4 High Content Imaging assay to assess their pharmacological potency to prevent Tunicamycin induced ISR. Wild-type HEK293 cells were plated in 384-well imaging assay plates at a density of 12,000 cells per well in growth medium (containing DMEM/F12, 10% FBS, 2 mM L-Glutamine, 100 U/mL Penicillin-100 μg/mL Streptomycin) and incubated at 37° C., 5% CO2. 24 h later, the medium was changed to 50 μL assay medium per well (DMEM/F12, 0.3% FBS, 2 mM L-Glutamine, 100 U/mL Penicillin-100 μg/mL Streptomycin). Example compounds were serially diluted in DMSO, spotted into intermediate plates and prediluted with assay medium containing 3.3 μM Tunicamycin to give an 11-fold excess of final assay concentration. In addition to the example compound testing area, the plates also contained multiples of control wells for assay normalization purposes, wells containing Tunicamycin but no example compounds (High control), as well as wells containing neither example compound nor Tunicamycin (Low control). The assay was started by transferring 5 μL from the intermediate plate into the assay plates, followed by incubation for 6 h at 37° C., 5% CO2. Subsequently, cells were fixed (4% PFA in PBS, 20 min at r.t.) and submitted to indirect ATF4 immunofluorescence staining (primary antibody rabbit anti ATF4, clone D4B8, Cell Signaling Technologies; secondary antibody Alexa Fluor 488 goat anti-rabbit IgG (H+L), Thermofisher Scientific). Nuclei were stained using Hoechst dye (Thermofisher Scientific), and plates were imaged on an Opera Phenix High Content imaging platform equipped with 405 nm and 488 nm excitation. Finally, images were analyzed using script based algorithms. The main readout HEK-ATF4 monitored the ATF4 signal ratio between nucleus and cytoplasm. Tunicamycin induced an increase in the overall ATF4 ratio signal, which was prevented by ISR modulating example compounds. In addition, HEK-CellCount readout was derived from counting the number of stained nuclei corresponding to healthy cells. This readout served as an internal toxicity control.

[3] = acetate buffer 50 mM, pH 5.5, read-out: Solubility (μg/mL) pH 5.5
[4] = phosphate buffer 50 mM, pH 7.4, read-out: Solubility (μg/mL) pH 7.4

SMILES	IC50 [2] [nM]	also measured
O=C(CO[C@H]1C[C@@H](OC(F)(F)F)C1)N[C@@H]1CC[C@@H](c2nnc(-c3ccc(Cl)cc3)o2)NC1 [Example 5]	–	solubility [1, 3]: 215 µg/mL (≈ 453 µM); Solubility (μg/mL) pH 2.0 ([1]; pH 2.0): quant.^#; solubility [1, 4]: 278 µg/mL (≈ 585 µM)
O=C(COc1ccc(C(F)(F)F)c(F)c1)N[C@H]1CC[C@H](c2nnc(OCCC(F)(F)F)o2)NC1 [Example 23, 2-[3-fluoro-4-(trifluoromethyl)phenoxy]-N-[(3S,6R)-6-[5-(3,3,3-trifluoropropoxy)-1,3,4-oxadiazol-2-yl]piperidin-3-yl]acetamide]	1 to 500	–
O=C(N[C@H]1CC[C@H](c2nnc(OCCC(F)(F)F)o2)NC1)C(F)(F)Oc1ccc(Cl)c(F)c1 [Example 24, 2-(4-chloro-3-fluorophenoxy)-2,2-difluoro-N-[(3S,6R)-6-[5-(3,3,3-trifluoropropoxy)-1,3,4-oxadiazol-2-yl]piperidin-3-yl]acetamide]	500 to 2000	–
O=C(COc1ccc(F)c(Cl)c1)N[C@H]1CC[C@H](c2nnc(OCCC(F)(F)F)o2)NC1 [Example 18, 2-(3-chloro-4-fluorophenoxy)-N-[(3S,6R)-6-[5-(3,3,3-trifluoropropoxy)-1,3,4-oxadiazol-2-yl]piperidin-3-yl]acetamide]	500 to 2000	–
CC(COc1nnc([C@H]2CC[C@H](NC(=O)COc3ccc(Cl)c(F)c3)CN2)o1)C(F)(F)F (stereo partly drawn) [Example 63, 2-(4-chloro-3-fluorophenoxy)-N-[(3S,6R)-6-[5-(3,3,3-trifluoro-2-methylpropoxy)-1,3,4-oxadiazol-2-yl]piperidin-3-yl]acetamide]	500 to 2000	–
O=C(COc1cc(Cl)c(Cl)c(Cl)c1)N[C@H]1CC[C@H](c2nnc(OCCC(F)(F)F)o2)NC1 [Example 26, 2-(3,4,5-trichlorophenoxy)-N-[(3S,6R)-6-[5-(3,3,3-trifluoropropoxy)-1,3,4-oxadiazol-2-yl]piperidin-3-yl]acetamide]	2000 to 15000	–
O=C(COc1cc(F)c(Cl)c(F)c1)N[C@H]1CC[C@H](c2nnc(OCCC(F)(F)F)o2)NC1 [Example 22, 2-(4-chloro-3,5-difluorophenoxy)-N-[(3S,6R)-6-[5-(3,3,3-trifluoropropoxy)-1,3,4-oxadiazol-2-yl]piperidin-3-yl]acetamide]	500 to 2000	–
COCCN1C[C@H](NC(=O)COc2ccc(Cl)c(F)c2)CC[C@H]1c1nnc(-c2ccc(Cl)cc2)o1 [Example 48, 2-(4-chloro-3-fluoro-phenoxy)-N-[(3R,6S)-6-[5-(4-chlorophenyl)-1,3,4-oxadiazol-2-yl]-1-(2-methoxyethyl)piperidin-3-yl]acetamide]	500 to 2000	–
Cn1nc(-c2nnc([C@H]3CC[C@H](NC(=O)COc4ccc(Cl)c(F)c4)CN3)o2)cc1Cl [Example 51, N-[(3S,6R)-6-[5-(5-chloro-1-methyl-1H-pyrazol-3-yl)-1,3,4-oxadiazol-2-yl]piperidin-3-yl]-2-(4-chloro-3-fluorophenoxy)acetamide]	500 to 2000	solubility [1, 3]: 4 µg/mL (≈ 8.52 µM); solubility ([1]; phosphate buffer 50 mM, pH 2.0, read-out: Solubility (μg/mL) pH 2.0): 945 µg/mL (≈ 2010 µM); solubility [1, 4]: 2 µg/mL (≈ 4.26 µM)
O=C(COc1ccc(C(F)(F)F)cc1)N[C@H]1CC[C@H](c2nnc(OCCC(F)(F)F)o2)NC1 [Example 19, 2-[4-(trifluoromethyl)phenoxy]-N-[(3S,6R)-6-[5-(3,3,3-trifluoropropoxy)-1,3,4-oxadiazol-2-yl]piperidin-3-yl]acetamide]	500 to 2000	–
O=C(COc1cccc(C(F)(F)F)c1)N[C@H]1CC[C@H](c2nnc(OCCC(F)(F)F)o2)NC1 [Example 28, 2-[3-(trifluoromethyl)phenoxy]-N-[(3S,6R)-6-[5-(3,3,3-trifluoropropoxy)-1,3,4-oxadiazol-2-yl]piperidin-3-yl]acetamide]	2000 to 15000	–
O=C(COc1ccc(Cl)c(F)c1)N[C@H]1CC[C@H](c2nnc(OCCCC(F)(F)F)o2)NC1 [Example 74, 2-(4-chloro-3-fluorophenoxy)-N-[(3S,6R)-6-[5-(4,4,4-trifluorobutoxy)-1,3,4-oxadiazol-2-yl]piperidin-3-yl]acetamide]	1 to 500	–
CC(C)(C)OC(=O)N1C[C@@H](NC(=O)COc2ccc(Cl)c(F)c2)CC[C@@H]1c1nnc(-c2ccc(Cl)cc2)o1 [Example 39, tert-butyl (2R,5S)-5-[2-(4-chloro-3-fluorophenoxy)acetamido]-2-[5-(4-chlorophenyl)-1,3,4-oxadiazol-2-yl]piperidine-1-carboxylate]	2000 to 15000	–
O=C(COc1ccc(Br)cc1)N[C@H]1CC[C@H](c2nnc(OCCC(F)(F)F)o2)NC1 [Example 27, 2-(4-bromophenoxy)-N-[(3S,6R)-6-[5-(3,3,3-trifluoropropoxy)-1,3,4-oxadiazol-2-yl]piperidin-3-yl]acetamide]	1 to 500	–
O=C(COc1ccc(Cl)cc1F)N[C@H]1CC[C@H](c2nnc(OCCC(F)(F)F)o2)NC1 [Example 17, 2-(4-chloro-2-fluorophenoxy)-N-[(3S,6R)-6-[5-(3,3,3-trifluoropropoxy)-1,3,4-oxadiazol-2-yl]piperidin-3-yl]acetamide]	2000 to 15000	–
O=C(COc1ccc(Cl)c(F)c1)N[C@H]1CC[C@H](c2nnc(OCC(F)(F)C(F)(F)F)o2)NC1 [Example 73, 2-(4-chloro-3-fluorophenoxy)-N-[(3S,6R)-6-[5-(2,2,3,3,3-pentafluoropropoxy)-1,3,4-oxadiazol-2-yl]piperidin-3-yl]acetamide]	500 to 2000	–
O=C(COc1ccc(Cl)c(Cl)c1)N[C@H]1CC[C@H](c2nnc(OCCC(F)(F)F)o2)NC1 [Example 20, 2-(3,4-dichlorophenoxy)-N-[(3S,6R)-6-[5-(3,3,3-trifluoropropoxy)-1,3,4-oxadiazol-2-yl]piperidin-3-yl]acetamide]	1 to 500	–
O=C(COc1ccc(Cl)c(F)c1)N[C@H]1CC[C@H](c2nnc(-c3ccc(Cl)cc3)o2)NC1=O (racemic) [Example 37, Rac-2-(4-chloro-3-fluorophenoxy)-N-[6-[5-(4-chlorophenyl)-1,3,4-oxadiazol-2-yl]-2-oxopiperidin-3-yl]acetamide]	1 to 500	–
O=C(COc1ccc(Cl)c(F)c1F)N[C@H]1CC[C@H](c2nnc(OCCC(F)(F)F)o2)NC1 [Example 21, 2-(4-chloro-2,3-difluorophenoxy)-N-[(3S,6R)-6-[5-(3,3,3-trifluoropropoxy)-1,3,4-oxadiazol-2-yl]piperidin-3-yl]acetamide]	500 to 2000	–
C[C@H](Oc1ccc(Cl)cc1)C(=O)N[C@H]1CC[C@H](c2nnc(-c3ccc(C(F)(F)F)cc3)o2)NC1 (single isomer, unassigned) [Example 107]	2000 to 15000	–
O=C(COc1ccc(C(F)(F)F)c(Cl)c1)N[C@H]1CC[C@H](c2nnc(OCCC(F)(F)F)o2)NC1 [Example 25, 2-[3-chloro-4-(trifluoromethyl)phenoxy]-N-[(3S,6R)-6-[5-(3,3,3-trifluoropropoxy)-1,3,4-oxadiazol-2-yl]piperidin-3-yl]acetamide]	1 to 500	–
O=C(COc1ccc(Cl)c(F)c1)N[C@@H]1CC[C@H](c2nnc(-c3ccc(Cl)cc3)o2)NC1 [Example 36, 2-(4-chloro-3-fluorophenoxy)-N-[(3R,6R)-6-[5-(4-chlorophenyl)-1,3,4-oxadiazol-2-yl]piperidin-3-yl]acetamide]	500 to 2000	–
